This is an account of results in EP0470323A2, “New salts of the nicotinic acid with aminobenzylic compounds and their pharmaceutical use” (BROMLEY LIMITED, priority 1990, dated 1992).

For experiment [1], the system named is hypertrigliceridaemia from olive oil in the rats. The experiment is described as follows: Hypertriglyceridaemia from olive oil in the rat (serum lactescence). The experiment is classed as in vivo. The conditions noted are these: dose 2 mM/kg/os. As for the experimental part:
The method described by Zucker I.H. (Sci. Anal. Lab. 24, 114, 1972) has been followed.
Male rats have been used, whose body weight was 150-200 g. The animals were without eating with water "ad libitum" and all this beginning 24 hours before the experiment. The hyperlipaemia was induced by the administration of olive oil by mouth; its composition as to the fat acids was as follows: palmitic acid 10% palmitoleic acid 1%, stearic acid 3%, […] and linoleic acid 7% (all percentages are by weight). The quantity of olive oil administered, by means of a gastric probe, was 10 ml/kg. The treatments were made by finely pounding with a china mortar and by suspending in the olive oil the examined compounds. […] The positive control animals received only olive oil; moreover, there was also a group of negative control animals who received plain water in quantities of 10 ml/kg. Every three hours a group of rats (10) was killed in a light ethereal anaesthesia, in order to be able to appreciate the percentage of triglycerides in the blood. The animals were bled by cutting them the carotids and the blood was collected in plastic test-tubes, capacity 10 ml each, and was centrifuged for ten minutes at 3500 rpm. The evaluated parameter was the lactescence of the serum, which is directly proportional to the contents of kilomicrons and therefore of triglycerides (Zucker, see above the mention). The serum has been diluted 1:5 in a physiologic solution and was read at the spectrophotometer at […] against white (physiologic solution). From the individual optical Density (D.O.) data one could calculate for each group the average of the standard error. The statistical analysis was performed by means of the t of Dunnett.

For experiment [2], the system named is Hypercholesterolaemia caused by Trit WR1339 in the mouses. The experiment is described as follows: Hypercholesterolaemia of the mouse caused by Triton WR 1339. The conditions noted are these: dose 2 mM/kg per os. In kind it is in vivo. As for the experimental part:
The method described by Garattini S. (Arzneim,Forsch 9, 206; 1959) with some modifications has been followed.
The mouses used have been males of 22 to 28 grams body weight, on an empty stomach but with water "ad libitum" since 12 hours. The hyperlipidaemia was induced by means of an intraperitoneum administration of […] of Triton WR 1339, with dosage 300 mg/kg in a physiological solution. The subject products were administered at the same time in clear plain water, always in a volume of […] by means of a gastric probe. The animals were sacrified after 20 hours, by cutting them the carotids. The blood was collected in some plastic test-tubes, and was centrifuged at 3500 rpm for ten minutes. Thereafter the total cholesterol (Sornay R and colleagues, Arzeneim Forsch, 26,885 1976) and the total lipids (Chonhelmer R and colleagues, Biological Chemistry 106, 745, 1934) were determined.

The subject of experiment [3] is Hypertriglyceridaemia caused by ethanole in the rats. In words: Hypertriglyceridaemia caused by ethanol in rats, activity at three dose levels. The conditions noted are these: rat. In kind it is in vivo. The text has this: (§1) For this test group the methods described by Sistori C.R. and colleagues (Atherosclerosis 30, 45; 1978) is followed.
(§2) The hypertriglyceridaemia has been induced into the male rats having a body weight of 160 - 170 g by giving them to drink, for 4 consecutive days, a solution of 10% ethanole in water.

The test system is the same in experiment [4]. In words: Hypertriglyceridaemia caused by ethanol in rats, duration of the effects. In kind it is in vivo. The conditions noted are these: rat, dose 1 mM/kg/os.
Source text: as §1, §2
In order to perform the particular kinetics of the compound in accordance with the example 1 following the instant invention, it was considered appropriate, anyway, to evaluate the duration of the hypolipaemizing effect in comparison to that of the nicotinic acid.
A group of normal animals was treated with the vehicle only and did serve as a negative control group.

The subject of experiment [5] is aggregation of the platelets caused by the collagene. In words: Anti-aggregating ex vivo activity against collagen in the rat. The conditions noted are these: rat, 1,00 mM/kg os for 4 days. Here is the method: Six groups of 15 male rats of 200 - 250 g have been used.
The blood taken from the three rats of each group has been mixed and centrifuged during 6 minutes at 1400 rpm, at room temperature. After having taken the plasma full of platelets (PRP) the thereunder floating material has been centrifuged again (4000 rpm during 10 minutes) in order to have the plasma with few platelets (PPP) separated from the balance. The PRP has been diluted with a part of PPP in order to bring the number of platelets to 350 ± 50 x 10³/mm³. The aggregation has been evaluated in accordance with the method of Minsker D.H. and coll. (J. Pharmacol.Exp.Ther. 210 37 1979) by using an ELVI 840 two-channels aggregometer and an Omniscribe recorder B.500. A quantity of 0,25 ml PRP has been used, transferred into the aggregometer for two minutes at 37°C and stirred at 1000 rpm. The light intensity was arranged in such a way, to obtain 0% transmittance with the PRP and 100% with the PPP. After 2′ incubation, by means of microsyringe the collagene was added to the PRP in a volume quantity of 5 mcl with the final concentration of 4 mcg/ml.
From the aggregation trace of the recorder the following data have been evaluated: • a) latent time of the aggregation (seconds between the introductions of collagene and the starting of the aggregation) • b) transmittance increase percentage (maximum aggregation). The same proceeding was repeated for all animals, always by mixing the blood of three rats belonging to the same group and by obtaining in this manner five aggregation curves per group.

The subject of experiment [6] is Central artery of a rabbit's ear. The experiment is described as follows: In vitro antispastic action, adrenalin-induced spasm of the perfused isolated artery. The conditions noted are these: for % inhibi-tions of the con-tractions: spasm induced by Adrenalin, n=4. Here is the method:
An "in vitro" method has been used, according to which the withdrawal of the central artery of a rabbit's ear with the relevant nervous connections and the equipment of an appropriate seat for secluded organs was designed (Fleckenstein A., British Journal of Pharmacology 7, 533, 1952).
On the artery they did install a three-ways tube, connected with a peristaltic pump and with a mercury manometer to record the perfusion pressure. The artery was perfused with a rebs liquid at the speed of 2,5 ml/minute. The contractions were induced by injecting into the vessel 0,1 ml adrenalin at the concentration of 1 mcg/ml. The compound according to the example 1 has been added to the bath at concentrations of 0,5 - 1 - 2 uM, five minutes before the adrenalin (four preparations per concentration). As comparison drugs, chlorhydra ted Buflomedil and Papaverin have been used. The activity of the material under investigation has been appreciated in terms of percentages referring to the concentration induced by the Adrenalin (and expressed with DE₅₀) and the relevant forbidding.

Experiment [7] relates to skin temperature of the mouse's paw. In words: Peripheral vessel-dilating activity in the mouse (skin temperature of hind paws). The experiment is classed as in vivo. The conditions noted are these: for Temperature (°C) of the hind paws (n=10): intravenous, dose 0,030 mM/kg/iv; for Temperature (°C) of the hind paws: oral, dose 0,500 mM/kg/os. Here is the method:
The method of Richter W. (Acta Pharm. Toxicol. 21, 91; 1974) was used; it consists in determining, at fixed time intervals after the treatment, the skin temperature of the mouse's paw, by keeping the animals in rooms at a constant temperature of 21°C.
Some groups of ten male mouses each have been used; the weight of each animal was 30 g approximately.
The compound according to the Example 1 has been tested "per os" at three basic levels of the doses (0,125 - 0,25 - 0,5 mM/kg) and by intravenous injection at two dose levels (0,015 and 0,03 mM/kg), in comparison with one sole dose of Papaverin and chlorhydrated Buflomedil (0,5 mM/kg "per os" and 0,03m M/kg intravenous). The observation of the skin temperature at the mouse's paw was made before the treatment, 30, 60 and 120 minutes after the "per os" treatment, […] (A-Hl Ellab) connected with an Ellab electric recorder. Of each animal the temperature of both hind paws has been measured, and the values obtained have been averaged .

Setting [8] is: 20 hours after Triton WR 1339 i.p.
Where [9] appears, read: PRP 2 hours after last treatment, collagene 4 mcg/ml.
Where [10] appears, read: 0 minutes (before the treatment).

As to `O=C(O)c1cccnc1` [Nicotinic acid, nicotinic acid], the “Serum opt.density at the indicated times (M ± E.S.)” value in experiment [1] (3 h) was 258 ± 14,9; in experiment [1] (6 h), 1312 ± 58,2; in experiment [1] (9 h) it was 1161 ± 53,2; in experiment [1] (12 h), 1000 ± 31,3; in experiment [1] (15 h) it was 510 ± 18,4; in experiment [1] (18 h), 250 ± 21,4. In addition, in experiment [2] (setting [8]), the “Tot.Cholesterol M ± E.S.” value came out at 215 ± 16 mg/100 ml. Further, in experiment [2] (setting [8]), the “Tot.Lipids M ± E.S.” value was determined as 1643 ± 131 mg/100 ml. The “Tot.Cholesterol % vs contr.” value in experiment [2] (reduction) was 39,9%. Further, the “Tot.Lipids % vs contr.” value in experiment [2] (reduction) was 32,5%. In addition, the “Triglycerids M ± E.S.” value in experiment [3] (dose 1,0 mM/kg/os once a day for 4 days, 4 hours after last treatment) was 156,4 ± 18,1 mg/100 ml. In experiment [3] (dose 1,0 mM/kg/os, 4 hours after treatment), the “Triglycerids % vs contr. positivi” value is recorded as -24,7%. For the same compound, the “decrease (of triglycerides vs positive controls)” value in experiment [3] (dose of 1 mM/kg per os) was 24,7%. Also, the “% variation vs positive controls (Trigliceridi)” value was -29,4% in experiment [4] (4 h); -25,5% in experiment [4] (6 h); -10,3% in experiment [4] (12 h); -3,1% in experiment [4] (16 h); “+7,9%” in experiment [4] (24 h). Besides, the Trigliceridi in experiment [4] (4 h from the last treatment) was 181,6 ± 15,7 mg/100 ml; in experiment [4] (6 h from the last treatment), 176,0 ± 11,2 mg/100 ml; in experiment [4] (12 h from the last treatment), 184,6 ± 8,9 mg/100 ml; in experiment [4] (16 h from the last treatment) it was 180,7 ± 14,5 mg/100 ml; in experiment [4] (24 h from the last treatment) it was 178,4 ± 9,7 mg/100 ml. In experiment [5], the “Latency time, % variation vs controls” value is “+8,0%”. Further, the “Transmittance percentage, % variation vs controls” value in experiment [5] is on record as -13,0%. Besides, the “Latency time (sec.)” value in experiment [5] (setting [9]) is listed as 40,5 ± 4,0 sec. The “Transmittance percentage (maximum aggregation)” value in experiment [5] (setting [9]) was 68,4 ± 5,2%.
For `COc1ccc(Cc2nccc3cc(OC)c(OC)cc23)cc1OC` [Papaverin, reference compound], the EC50 in experiment [6] (Oryctolagus cuniculus, read-out: DE50) came to 760 nM. Besides, the results for the “% inhibi-tions of the con-tractions” value in experiment [6] (concentration 0,5 μ M), in experiment [6] (concentration 1,0 μ M) and in experiment [6] (concentration 2,0 μ M) were 33%, 64% and 81%, respectively. For the same compound, the “Temperature (°C) of the hind paws (n=10)” value in experiment [7] (setting [10]) is 24,5 ± 0,28 °C; in experiment [7] (30 minutes from the treatment), 26,6 ± 0,25 °C; in experiment [7] (60 minutes from the treatment), 25,7 ± 0,20 °C; in experiment [7] (120 minutes from the treatment) it was 25,5 ± 0,23 °C. The “Temperature (°C) of the hind paws” value was 24,8 ± 0,35 °C in experiment [7] (setting [10]), 25,5 ± 0,21 °C in experiment [7] (30 minutes from the treatment), 25,9 ± 0,25 °C in experiment [7] (60 minutes from the treatment) and 25,1 ± 0,30 °C in experiment [7] (120 minutes from the treatment).
